Calls of active or inactive are those of the source.
What was measured:
cells = type: functional
Exodeoxyribonuclease V = biological target: T1, Exodeoxyribonuclease V (Escherichia coli (strain K12), UniProt P04993+P07648+P08394); experiment: RecBCD inhibition via phage-restricted bacterial growth – absorbance, V66 E. coli, mutant T4 phage, counter-screen for AddAB inhibitor project, dose response (AID 492957); type: functional, cell-based, Escherichia coli str. K-12 substr. MG1655
T1 sequence (P04993 whole entry): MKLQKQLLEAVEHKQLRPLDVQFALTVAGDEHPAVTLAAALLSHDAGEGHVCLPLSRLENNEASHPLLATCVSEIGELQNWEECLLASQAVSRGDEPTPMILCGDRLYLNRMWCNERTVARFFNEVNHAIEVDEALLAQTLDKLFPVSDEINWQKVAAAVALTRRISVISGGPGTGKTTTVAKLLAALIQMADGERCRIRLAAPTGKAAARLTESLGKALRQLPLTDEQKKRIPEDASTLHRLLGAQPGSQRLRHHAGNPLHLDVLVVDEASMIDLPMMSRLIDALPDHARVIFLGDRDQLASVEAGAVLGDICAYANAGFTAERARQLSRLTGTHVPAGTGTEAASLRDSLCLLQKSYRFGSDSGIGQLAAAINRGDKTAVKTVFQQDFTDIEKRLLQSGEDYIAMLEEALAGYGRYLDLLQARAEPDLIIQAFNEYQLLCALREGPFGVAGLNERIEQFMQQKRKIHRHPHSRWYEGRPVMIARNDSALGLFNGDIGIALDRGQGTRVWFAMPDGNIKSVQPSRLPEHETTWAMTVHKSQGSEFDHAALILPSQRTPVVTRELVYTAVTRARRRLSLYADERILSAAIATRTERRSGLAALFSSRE
T1 sequence (P07648 whole entry): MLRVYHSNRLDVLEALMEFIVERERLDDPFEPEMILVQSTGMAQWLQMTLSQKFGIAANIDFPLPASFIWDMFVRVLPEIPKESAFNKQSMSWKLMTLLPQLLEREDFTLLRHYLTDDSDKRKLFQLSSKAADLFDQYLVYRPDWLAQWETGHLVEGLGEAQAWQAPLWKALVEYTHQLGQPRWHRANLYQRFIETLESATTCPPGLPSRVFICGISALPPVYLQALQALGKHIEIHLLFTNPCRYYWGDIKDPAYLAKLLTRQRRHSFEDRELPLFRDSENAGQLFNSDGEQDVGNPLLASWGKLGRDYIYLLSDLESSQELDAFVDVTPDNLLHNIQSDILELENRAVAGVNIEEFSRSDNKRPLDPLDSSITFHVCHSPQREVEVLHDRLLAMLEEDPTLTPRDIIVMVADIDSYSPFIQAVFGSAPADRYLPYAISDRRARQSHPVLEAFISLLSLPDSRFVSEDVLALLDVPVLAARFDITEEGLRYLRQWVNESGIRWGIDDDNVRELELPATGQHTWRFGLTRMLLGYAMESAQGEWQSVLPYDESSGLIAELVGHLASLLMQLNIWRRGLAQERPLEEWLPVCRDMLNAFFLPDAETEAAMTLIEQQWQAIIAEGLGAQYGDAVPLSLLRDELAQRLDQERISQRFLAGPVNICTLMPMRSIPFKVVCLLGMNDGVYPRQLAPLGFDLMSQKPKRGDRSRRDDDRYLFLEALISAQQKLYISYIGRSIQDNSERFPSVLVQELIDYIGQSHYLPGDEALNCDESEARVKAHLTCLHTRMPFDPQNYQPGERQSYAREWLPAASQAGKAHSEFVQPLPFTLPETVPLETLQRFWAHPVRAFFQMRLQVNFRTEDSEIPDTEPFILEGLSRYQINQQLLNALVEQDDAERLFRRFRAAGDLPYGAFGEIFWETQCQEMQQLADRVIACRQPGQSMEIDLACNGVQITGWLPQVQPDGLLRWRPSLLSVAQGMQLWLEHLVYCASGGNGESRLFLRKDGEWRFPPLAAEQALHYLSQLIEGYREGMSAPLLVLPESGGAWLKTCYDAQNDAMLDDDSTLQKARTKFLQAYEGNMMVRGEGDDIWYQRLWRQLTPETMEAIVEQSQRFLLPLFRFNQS
T1 sequence (P08394 whole entry): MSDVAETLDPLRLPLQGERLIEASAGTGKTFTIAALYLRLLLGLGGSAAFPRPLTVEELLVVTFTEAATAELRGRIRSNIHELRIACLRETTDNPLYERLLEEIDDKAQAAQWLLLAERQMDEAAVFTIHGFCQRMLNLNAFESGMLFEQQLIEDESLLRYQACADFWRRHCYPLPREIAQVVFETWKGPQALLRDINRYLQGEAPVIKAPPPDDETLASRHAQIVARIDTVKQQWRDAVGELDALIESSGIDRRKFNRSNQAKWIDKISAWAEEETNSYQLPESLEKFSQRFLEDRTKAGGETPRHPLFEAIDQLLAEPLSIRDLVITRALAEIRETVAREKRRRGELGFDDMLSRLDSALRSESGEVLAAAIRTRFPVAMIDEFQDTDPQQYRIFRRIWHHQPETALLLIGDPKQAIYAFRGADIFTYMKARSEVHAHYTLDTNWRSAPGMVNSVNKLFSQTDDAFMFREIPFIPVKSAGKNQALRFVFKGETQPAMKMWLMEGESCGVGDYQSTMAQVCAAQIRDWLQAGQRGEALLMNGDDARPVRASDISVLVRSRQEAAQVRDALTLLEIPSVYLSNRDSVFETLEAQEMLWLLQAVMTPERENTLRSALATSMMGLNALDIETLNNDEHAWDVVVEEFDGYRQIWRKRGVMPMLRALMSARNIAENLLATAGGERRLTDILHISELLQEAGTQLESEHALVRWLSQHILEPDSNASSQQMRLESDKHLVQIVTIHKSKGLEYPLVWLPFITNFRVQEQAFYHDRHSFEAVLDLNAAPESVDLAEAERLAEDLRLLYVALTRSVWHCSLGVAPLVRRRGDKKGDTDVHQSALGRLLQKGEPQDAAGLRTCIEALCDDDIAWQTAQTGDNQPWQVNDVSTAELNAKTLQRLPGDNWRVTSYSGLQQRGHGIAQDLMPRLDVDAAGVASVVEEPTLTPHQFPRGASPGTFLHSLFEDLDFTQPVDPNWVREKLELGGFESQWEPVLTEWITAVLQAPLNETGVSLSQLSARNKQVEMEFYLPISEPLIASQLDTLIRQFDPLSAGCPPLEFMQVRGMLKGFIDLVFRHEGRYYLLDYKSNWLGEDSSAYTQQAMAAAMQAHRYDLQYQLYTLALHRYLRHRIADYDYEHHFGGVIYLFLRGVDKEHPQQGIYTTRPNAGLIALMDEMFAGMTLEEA

INS1 = experiment: INS-1E survival protection against cytokine death – cell-based, luminescence, retest, dose response (AID 449756); type: functional; settings: Rattus norvegicus;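 further: cell death triggered by IL-1 beta plus TNF-alpha plus IFN-gamma mixture; protective hits raise ATP signal compared with cytokine alone wells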

| SMILES | IC50 (cells) | IC50 (Exodeoxyribonuclease V) | AC50 (INS1) |
| --- | --- | --- | --- |
| COC(CNC(=O)c1ccc2c3c(onc13)-c1ccccc1C2=O)OC | 41.5 µM (active) |  |  |
| Cc1ccc2nc(/C(C#N)=C\c3ccc([N+](=O)[O-])o3)[nH]c2c1 |  | > 119 µM (inactive) |  |
| Nc1ccc2c(c1)C(=O)C(=O)c1ccccc1-2 | 7.1 µM (active) |  | 1.06 µM (active) |
| CCCC(=O)NC(c1ccccc1OC)c1ccc2cccnc2c1O (stereo unspecified) |  | > 119 µM (inactive) | 1.14 µM (active) |

Source: ChEMBL document CHEMBL1201862, “PubChem BioAssay data set” (2004)
